This assay addresses AChE (Homo sapiens, UniProt P22303). The assay is described as follows: In vitro anti-AChE assay. The assay is classed as biochemical.

Data on 4 compounds can be found in publication PMC12176101 (Drug Design, Development and Therapy, 2025).

Residues, ends and D or L forms follow the SMILES beside them.

AChE, sequence (P22303 32-614): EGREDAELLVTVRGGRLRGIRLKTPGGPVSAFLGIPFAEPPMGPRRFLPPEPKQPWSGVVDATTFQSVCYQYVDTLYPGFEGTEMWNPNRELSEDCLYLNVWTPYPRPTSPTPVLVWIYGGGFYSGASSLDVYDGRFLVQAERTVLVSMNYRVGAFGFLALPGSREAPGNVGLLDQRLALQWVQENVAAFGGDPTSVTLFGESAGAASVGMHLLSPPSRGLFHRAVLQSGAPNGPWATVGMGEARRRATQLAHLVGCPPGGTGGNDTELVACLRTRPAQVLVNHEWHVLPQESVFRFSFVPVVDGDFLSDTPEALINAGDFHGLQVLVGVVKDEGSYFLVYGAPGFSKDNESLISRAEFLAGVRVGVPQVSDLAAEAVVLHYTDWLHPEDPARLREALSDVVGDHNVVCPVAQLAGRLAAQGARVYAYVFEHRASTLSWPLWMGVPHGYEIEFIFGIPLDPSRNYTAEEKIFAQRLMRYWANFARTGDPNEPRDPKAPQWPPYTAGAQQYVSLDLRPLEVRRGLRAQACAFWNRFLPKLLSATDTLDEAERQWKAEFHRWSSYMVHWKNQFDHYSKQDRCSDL

Broadly, the IC50 is the concentration needed to halve the response being measured. Higher therefore signals weaker potency. In turn, `CSCC[C@H](NC(=O)[C@@H](NC(=O)[C@H](Cc1c[nH]cn1)NC(=O)[C@@H](N)CC(C)C)[C@@H](C)O)C(=O)N[C@@H](CCC(=O)O)C(=O)N[C@@H](CC(C)C)C(=O)N[C@@H](CC(C)C)C(=O)O` [LHTMELL] (H-LHTMELL-OH) gave an IC50 of 10600 nM. Next, `CC[C@H](C)[C@H](NC(=O)[C@H](Cc1c[nH]c2ccccc12)NC(=O)[C@@H](N)C(C)C)C(=O)N[C@H](C(=O)NCC(=O)N[C@@H](Cc1ccccc1)C(=O)N[C@@H](CCC(=O)O)C(=O)N[C@@H](Cc1c[nH]cn1)C(=O)N[C@@H](CCSC)C(=O)O)[C@@H](C)CC` [VWIIGFEHM] (H-VWIIGFEHM-OH): 3900 nM; `CC(C)C[C@H](NC(=O)[C@H](Cc1c[nH]cn1)NC(=O)[C@@H](N)Cc1c[nH]c2ccccc12)C(=O)N[C@@H](CS)C(=O)N[C@H](C(=O)N[C@@H](CC(C)C)C(=O)N[C@@H](Cc1ccccc1)C(=O)O)C(C)C` [WHLCVLF] (H-WHLCVLF-OH): 1500 nM.

Compound `CC[C@H](C)[C@H](NC(=O)[C@@H](N)Cc1c[nH]c2ccccc12)C(=O)NCC(=O)N[C@@H](CS)C(=O)N[C@@H](Cc1c[nH]c2ccccc12)C(=O)N[C@@H](CC(=O)O)C(=O)O` [WIGCWD] (H-WIGCWD-OH) came in with an IC50 of 1900 nM. The IC50 values of the last two compounds are within 1.5-fold of each other.
